From patent US8192962B2, “Processes for detecting toxic substances” (Daikin Industries, Ltd., priority 2001, dated 2012)

System: Unknown protein yeast genes
Assay: DNA chip mRNA expression in yeast, unknown protein yeast genes (Table 1)
Assay type: cell-based, Saccharomyces cerevisiae S288C
Procedure: Yeast (Saccharomyces cerevisiae S288C (α SUC2mal mel gap2 CUP1)) were incubated at 25° C. on YPD medium (yeast extract 1%, polypepton 2%, glucose 2%). One of toxic chemical substances was added to the cells at logarithmic growth phase, and the cells were further incubated for two hours. Cells were cultured without any chemical substance in the same condition, and were used as control. Concentrations of the chemical substances were defined to inhibit the growth of the yeast but not lead to death.
After completion of the incubation, the culture was centrifuged to collect the cells. To the cells, sodium acetate buffer (50 mM sodium acetate, 10 mM EDTA, 1% SDS) was added, and the mixture was shaken at 65° C. for five minutes, followed by returning to room temperature, and obtaining the supernatant, of which the procedures were repeated two times. To the supernatant, ½ amount of a solution of phenol/chloroform was added, and the mixture was centrifuged to give a supernatant, which was added with an equal amount of chloroform, and the mixture was centrifuged to give a supernatant. To the supernatant, an equal amount of isopropanol containing 0.3 M sodium acetate was added, and the mixture was allowed to stand at room temperature for 30 minutes, after which the mixture was centrifuged to give a sediment of the whole RNAs. Seventy % ethanol was added to the sediment, and the mixture was again centrifuged to give a sediment, which was then dried and dissolved in water. mRNA was isolated from the whole RNAs as followings. In view of the fact that a poly A chain is attached to the 3′ terminus of mRNA, a polynucleotide having a poly T structure which was immobilized on the surface of latex beads was used to trap the mRNA, and then the mRNA was washed and eluted with spine column (Oligotex-dT30<Super>mRNA Purification Kit, Takara). Reverse transcription of the mRNA was conducted with a reverse transcriptase (Super Script II Reverse Transcriptase; catalogue No. 18064-014, GibcoBRL) using fluorescence-labeled nucleotides to give cDNAs that were introduced with Cy3-dUTP or Cy5-dUTP during the reverse transcription.
The labeled cDNAs were dissolved in TE buffer (10mM Tris-HCl/1 mM EDTA, pH8.0), and the solution was dropped on the DNA chip containing the whole genes of yeast (DNA Chip Research Inc. Japan) so that the cDNAs were hybridized on the DNA chip at 65° C. for over 12 hours. The fluoresces intensity of the DNA chip was read with a scanner, and the ratio relative to the fluorescence intensity resulting from the absence of chemical substance was estimated as the following, which is shown in Tables 1 to 9: […]

Compound: Oc1cc(Cl)c(Cl)cc1Cl [(6), 2,4,5-trichlorophenol]
- The level of expressed mRNA in the presence of chemical substance/The level of expressed mRNA in the absence of chemical substance (yeast gene YKL086W, incubated two hours with chemical substance): 1.0
- The level of expressed mRNA in the presence of chemical substance/The level of expressed mRNA in the absence of chemical substance (yeast gene YKL151C, incubated two hours with chemical substance): 2.0
- The level of expressed mRNA in the presence of chemical substance/The level of expressed mRNA in the absence of chemical substance (yeast gene YKL153W, incubated two hours with chemical substance): 2.9
- The level of expressed mRNA in the presence of chemical substance/The level of expressed mRNA in the absence of chemical substance (yeast gene YKL195W, incubated two hours with chemical substance): 2.5
- The level of expressed mRNA in the presence of chemical substance/The level of expressed mRNA in the absence of chemical substance (yeast gene YKR018C): 1.7
- The level of expressed mRNA in the presence of chemical substance/The level of expressed mRNA in the absence of chemical substance (yeast gene YKR049C): 3.0
- The level of expressed mRNA in the presence of chemical substance/The level of expressed mRNA in the absence of chemical substance (yeast gene YKR091W, incubated two hours with chemical substance): 1.0
- The level of expressed mRNA in the presence of chemical substance/The level of expressed mRNA in the absence of chemical substance (yeast gene YLR054C, incubated two hours with chemical substance): 1.2
- The level of expressed mRNA in the presence of chemical substance/The level of expressed mRNA in the absence of chemical substance (yeast gene YLR149C, incubated two hours with chemical substance): 1.4
- The level of expressed mRNA in the presence of chemical substance/The level of expressed mRNA in the absence of chemical substance (yeast gene YLR152C, incubated two hours with chemical substance): 2.1
- The level of expressed mRNA in the presence of chemical substance/The level of expressed mRNA in the absence of chemical substance (yeast gene YLR194C, incubated two hours with chemical substance): 0.9
- The level of expressed mRNA in the presence of chemical substance/The level of expressed mRNA in the absence of chemical substance (yeast gene YLR324W, incubated two hours with chemical substance): 1.2
- The level of expressed mRNA in the presence of chemical substance/The level of expressed mRNA in the absence of chemical substance (yeast gene YLR328W): 4.8
- The level of expressed mRNA in the presence of chemical substance/The level of expressed mRNA in the absence of chemical substance (yeast gene YLR350W, incubated two hours with chemical substance): 1.6
- The level of expressed mRNA in the presence of chemical substance/The level of expressed mRNA in the absence of chemical substance (yeast gene YLR387C, incubated two hours with chemical substance): 1.9
- The level of expressed mRNA in the presence of chemical substance/The level of expressed mRNA in the absence of chemical substance (yeast gene YLR460C): 0.6
- The level of expressed mRNA in the presence of chemical substance/The level of expressed mRNA in the absence of chemical substance (yeast gene YML117W, incubated two hours with chemical substance): 1.0
- The level of expressed mRNA in the presence of chemical substance/The level of expressed mRNA in the absence of chemical substance (yeast gene YMR009W, incubated two hours with chemical substance): 1.2
- The level of expressed mRNA in the presence of chemical substance/The level of expressed mRNA in the absence of chemical substance (yeast gene YMR040W): 2.8
- The level of expressed mRNA in the presence of chemical substance/The level of expressed mRNA in the absence of chemical substance (yeast gene YMR067C, incubated two hours with chemical substance): 1.4
- The level of expressed mRNA in the presence of chemical substance/The level of expressed mRNA in the absence of chemical substance (yeast gene YMR090W): 3.8
- The level of expressed mRNA in the presence of chemical substance/The level of expressed mRNA in the absence of chemical substance (yeast gene YMR095C, incubated two hours with chemical substance): 0.7
- The level of expressed mRNA in the presence of chemical substance/The level of expressed mRNA in the absence of chemical substance (yeast gene YMR097C, incubated two hours with chemical substance): 1.2
- The level of expressed mRNA in the presence of chemical substance/The level of expressed mRNA in the absence of chemical substance (yeast gene YMR102C, incubated two hours with chemical substance): 6.3
- The level of expressed mRNA in the presence of chemical substance/The level of expressed mRNA in the absence of chemical substance (yeast gene YMR107W, incubated two hours with chemical substance): 1.0
- The level of expressed mRNA in the presence of chemical substance/The level of expressed mRNA in the absence of chemical substance (yeast gene YMR180C, incubated two hours with chemical substance): 2.4
- The level of expressed mRNA in the presence of chemical substance/The level of expressed mRNA in the absence of chemical substance (yeast gene YMR184W, incubated two hours with chemical substance): 0.9
- The level of expressed mRNA in the presence of chemical substance/The level of expressed mRNA in the absence of chemical substance (yeast gene YMR191W, incubated two hours with chemical substance): 1.0
- The level of expressed mRNA in the presence of chemical substance/The level of expressed mRNA in the absence of chemical substance (yeast gene YMR295C, incubated two hours with chemical substance): 1.9
- The level of expressed mRNA in the presence of chemical substance/The level of expressed mRNA in the absence of chemical substance (yeast gene YMR316W, incubated two hours with chemical substance): 0.7
- The level of expressed mRNA in the presence of chemical substance/The level of expressed mRNA in the absence of chemical substance (yeast gene YNL044W, incubated two hours with chemical substance): 0.9
- The level of expressed mRNA in the presence of chemical substance/The level of expressed mRNA in the absence of chemical substance (yeast gene YNL074C, incubated two hours with chemical substance): 1.7
- The level of expressed mRNA in the presence of chemical substance/The level of expressed mRNA in the absence of chemical substance (yeast gene YNL092W, incubated two hours with chemical substance): 1.2
- The level of expressed mRNA in the presence of chemical substance/The level of expressed mRNA in the absence of chemical substance (yeast gene YNL115C, incubated two hours with chemical substance): 9.1
- The level of expressed mRNA in the presence of chemical substance/The level of expressed mRNA in the absence of chemical substance (yeast gene YNL156C, incubated two hours with chemical substance): 1.3
- The level of expressed mRNA in the presence of chemical substance/The level of expressed mRNA in the absence of chemical substance (yeast gene YNL234W, incubated two hours with chemical substance): 1.3
- The level of expressed mRNA in the presence of chemical substance/The level of expressed mRNA in the absence of chemical substance (yeast gene YNL281W, incubated two hours with chemical substance): 0.9
- The level of expressed mRNA in the presence of chemical substance/The level of expressed mRNA in the absence of chemical substance (yeast gene YNL305C, incubated two hours with chemical substance): 1.1
- The level of expressed mRNA in the presence of chemical substance/The level of expressed mRNA in the absence of chemical substance (yeast gene YNR068C, incubated two hours with chemical substance): 0.4
- The level of expressed mRNA in the presence of chemical substance/The level of expressed mRNA in the absence of chemical substance (yeast gene YOL032W, incubated two hours with chemical substance): 2.1
- The level of expressed mRNA in the presence of chemical substance/The level of expressed mRNA in the absence of chemical substance (yeast gene YOL036W, incubated two hours with chemical substance): 1.2
- The level of expressed mRNA in the presence of chemical substance/The level of expressed mRNA in the absence of chemical substance (yeast gene YOL047C, incubated two hours with chemical substance): 1.5
- The level of expressed mRNA in the presence of chemical substance/The level of expressed mRNA in the absence of chemical substance (yeast gene YOL071W, incubated two hours with chemical substance): 1.7
- The level of expressed mRNA in the presence of chemical substance/The level of expressed mRNA in the absence of chemical substance (yeast gene YOL082W, incubated two hours with chemical substance): 1.8
- The level of expressed mRNA in the presence of chemical substance/The level of expressed mRNA in the absence of chemical substance (yeast gene YOL083W, incubated two hours with chemical substance): 4.5
- The level of expressed mRNA in the presence of chemical substance/The level of expressed mRNA in the absence of chemical substance (yeast gene YOL117W, incubated two hours with chemical substance): 2.0
- The level of expressed mRNA in the presence of chemical substance/The level of expressed mRNA in the absence of chemical substance (yeast gene YOL131W, incubated two hours with chemical substance): 1.1
- The level of expressed mRNA in the presence of chemical substance/The level of expressed mRNA in the absence of chemical substance (yeast gene YOL150C): 5.2
- The level of expressed mRNA in the presence of chemical substance/The level of expressed mRNA in the absence of chemical substance (yeast gene YOL162W, incubated two hours with chemical substance): 1.2
- The level of expressed mRNA in the presence of chemical substance/The level of expressed mRNA in the absence of chemical substance (yeast gene YOR019W, incubated two hours with chemical substance): 1.3
- The level of expressed mRNA in the presence of chemical substance/The level of expressed mRNA in the absence of chemical substance (yeast gene YOR197W, incubated two hours with chemical substance): 1.3
- The level of expressed mRNA in the presence of chemical substance/The level of expressed mRNA in the absence of chemical substance (yeast gene YPL087W, incubated two hours with chemical substance): 4.3
- The level of expressed mRNA in the presence of chemical substance/The level of expressed mRNA in the absence of chemical substance (yeast gene YPL196W, incubated two hours with chemical substance): 2.0
- The level of expressed mRNA in the presence of chemical substance/The level of expressed mRNA in the absence of chemical substance (yeast gene YPL206C, incubated two hours with chemical substance): 1.8
- The level of expressed mRNA in the presence of chemical substance/The level of expressed mRNA in the absence of chemical substance (yeast gene YPL222W, incubated two hours with chemical substance): 2.2
- The level of expressed mRNA in the presence of chemical substance/The level of expressed mRNA in the absence of chemical substance (yeast gene YPR023C, incubated two hours with chemical substance): 1.4
- The level of expressed mRNA in the presence of chemical substance/The level of expressed mRNA in the absence of chemical substance (yeast gene YPR151C, incubated two hours with chemical substance): 1.6
